Here are results for one compound from patent US9144239B2, “Macrocyclic picolinamides as fungicides” (DOW AGROSCIENCES LLC, priority 2012, dated 2015).

Where two headings read alike, the source gives them in different places.

What all share (format): in vivo
In one test the test system is Leptosphaeria nodorum. Briefly: Fungicidal activity: wheat glume blotch (LEPTNO). As to conditions: Parastagonospora nodorum, 24 h, 1 Day Protectant, read-out: Disease Control LEPTNO 1 DP. Here is the method:
Technical grades of materials were dissolved in acetone, which were then mixed with nine volumes of water containing 110 ppm Triton X-100. The fungicide solutions were applied onto wheat seedlings using an automated booth sprayer to run-off. All sprayed plants were allowed to air dry prior to further handling. Wheat plants (variety Yuma) were grown from seed in a greenhouse in 50% mineral soil/50% soil-less Metro mix until the first leaf was fully emerged, with 7-10 seedlings per pot. These plants were inoculated with an aqueous spore suspension of Septoria tritici either prior to or after fungicide treatments. After inoculation the plants were kept in 100% relative humidity (one day in a dark dew chamber followed by two to three days in a lighted dew chamber at 20° C.) to permit spores to germinate and infect the leaf. The plants were then transferred to a greenhouse set at 20° C. for disease to develop. When disease symptoms were fully expressed on the 1st leaves of untreated plants, infection levels were assessed on a scale of 0 to 100 percent disease severity. Percent disease control was calculated using the ratio of disease severity on treated plants relative to untreated plants. Evaluation of Fungicidal Activity: Wheat Glume Blotch (Leptosphaeria nodorum; Bayer Code […]) Wheat plants (variety Yuma) were grown from seed in a greenhouse in 50% mineral soil/50% soil-less Metro mix until the first leaf was fully emerged, with 7-10 seedlings per pot. These plants were inoculated with an aqueous spore suspension of Leptosphaeria nodorum 24 hr after fungicide treatments. After inoculation the plants were kept in 100% relative humidity (one day in a dark dew chamber followed by two days in a lighted dew chamber at 20° C.) to permit spores to germinate and infect the leaf. The plants were then transferred to a greenhouse set at 20° C. for disease to develop. Fungicide formulation, application and disease assessment followed the procedures as described in the Example A.

In another test the test system is Cercospora beticola. Put plainly: Fungicidal activity: leaf spot of sugar beets (CERCBE). As to conditions: 24 h, 1 Day Protectant, sugar beet, read-out: Disease Control CERCBE 1DP. The procedure: Technical grades of materials were dissolved in acetone, which were then mixed with nine volumes of water containing 110 ppm Triton X-100. The fungicide solutions were applied onto wheat seedlings using an automated booth sprayer to run-off. All sprayed plants were allowed to air dry prior to further handling. Wheat plants (variety Yuma) were grown from seed in a greenhouse in 50% mineral soil/50% soil-less Metro mix until the first leaf was fully emerged, with 7-10 seedlings per pot. These plants were inoculated with an aqueous spore suspension of Septoria tritici either prior to or after fungicide treatments. After inoculation the plants were kept in 100% relative humidity (one day in a dark dew chamber followed by two to three days in a lighted dew chamber at 20° C.) to permit spores to germinate and infect the leaf. The plants were then transferred to a greenhouse set at 20° C. for disease to develop. When disease symptoms were fully expressed on the 1st leaves of untreated plants, infection levels were assessed on a scale of 0 to 100 percent disease severity. Percent disease control was calculated using the ratio of disease severity on treated plants relative to untreated plants. Evaluation of Fungicidal Activity: Leaf Spot of Sugar Beets (Cercospora beticola; Bayer Code CERCBE) Sugar beet plants (variety HH88) were grown in soil-less Metro mix and trimmed regularly to maintain a uniform plant size prior to test. Plants were inoculated with a spore suspension 24 hr after fungicide treatments. Inoculated plants were kept in a dew chamber at 22° C. for 48 hr then incubated in a greenhouse set at 24° C. under a clear plastic hood with bottom ventilation until disease symptoms were fully expressed. Fungicide formulation, application and disease assessment on the sprayed leaves followed the procedures as described in the Example A.

For test [1], the system named is Mycosphaerella graminicola; anamorph: Septoria tritici. Put plainly: Fungicidal activity: leaf blotch of wheat (SEPTTR), wheat seedlings. As to conditions: Zymoseptoria tritici, 100 ppm, wheat. A digest of the protocol:
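Percent control derives from disease severity on treated versus untreated first leaves, rated 0–100% when symptoms were fully expressed on untreated plants. Yuma seedlings were inoculated with S. tritici spores either before or after spraying to run-off. The spray was acetone solution diluted 1:9 in water with 110 ppm Triton X-100. Infection took place in 100% RH dew chambers, then a 20 °C greenhouse.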

The test system of test [2] is Blumeria graminis f.sp. hordei; synonym: Erysiphe graminis f.sp. hordei. Briefly: Fungicidal activity: barley powdery mildew (ERYSGH). As to conditions: 24 h, 1 Day Protectant, read-out: Disease Control ERYSGH 1DP. The procedure:
Technical grades of materials were dissolved in acetone, which were then mixed with nine volumes of water containing 110 ppm Triton X-100. The fungicide solutions were applied onto wheat seedlings using an automated booth sprayer to run-off. All sprayed plants were allowed to air dry prior to further handling. Wheat plants (variety Yuma) were grown from seed in a greenhouse in 50% mineral soil/50% soil-less Metro mix until the first leaf was fully emerged, with 7-10 seedlings per pot. These plants were inoculated with an aqueous spore suspension of Septoria tritici either prior to or after fungicide treatments. After inoculation the plants were kept in 100% relative humidity (one day in a dark dew chamber followed by two to three days in a lighted dew chamber at 20° C.) to permit spores to germinate and infect the leaf. The plants were then transferred to a greenhouse set at 20° C. for disease to develop. When disease symptoms were fully expressed on the 1st leaves of untreated plants, infection levels were assessed on a scale of 0 to 100 percent disease severity. Percent disease control was calculated using the ratio of disease severity on treated plants relative to untreated plants. Evaluation of Fungicidal Activity: Barley Powdery Mildew (Blumeria graminis f.sp. hordei; Synonym: Erysiphe graminis f.sp. hordei; Bayer Code […]) Barley seedlings (variety Harrington) were propagated in soil-less Metro mix, with each pot having 8 to 12 plants, and used in the test when first leaf was fully emerged. Test plants were inoculated by dusting with infected stock plants 24 hr after fungicide treatments. After inoculation the plants were kept in a greenhouse set at 20° C. for disease to develop. Fungicide formulation, application and disease assessment on the sprayed leaves followed the procedures as described in the Example A.

Test [3] concerns Puccinia triticina; synonym: Puccinia recondita f. sp. tritici. Briefly: Fungicidal activity: wheat brown rust (PUCCRT), wheat seedlings. To be noted: 100 ppm, wheat. The gist of the method:
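Wheat (Yuma) seedlings at first-leaf stage, inoculated with Puccinia triticina spores before or after treatment, held overnight in dark dew room at 22° C, 100% RH, then greenhouse at 24° C. Acetone solutions diluted with nine volumes water containing 110 ppm Triton X-100, sprayed to run-off. Percent disease control derived from severity (0–100%) relative to untreated plants.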

On to `COc1ccnc(C(=O)N[C@H]2COC[C@H](Oc3ccc(F)cc3)[C@@H](OCC(C)C)[C@H](C)OC2=O)c1OCOC(C)=O` [Compound 228], for which the pest or weed control at 100 ppm with Leptosphaeria nodorum lay within 80 to 100%; in the test with Cercospora beticola, 0 to 80%; in test [1] (24 h, 1 Day Protectant, read-out: Disease Control SEPTTR 1DP), 80 to 100%; in test [1] (72 h, 3 Day Curative, read-out: Disease Control SEPTTR 3DC) it was 80 to 100%; in test [2] it was 0 to 80%; in test [3] (24 h, 1 Day Protectant, read-out: Disease Control PUCCRT 1DP), 80 to 100%. In test [3] (72 h, 3 Day Curative, read-out: Disease Control PUCCRT 3DC), the pest or weed control at 100 ppm lay in the range of 80 to 100%.
